{
  "source": "patent US12440541B2",
  "about": "“Methods for expanding and activating γσ T cells for the treatment of cancer and related malignancies” (priority 2017, dated 2025)",
  "tested_on": "γδ T cells",
  "assay": "γδ T cell expansion in defined medium",
  "assay_type": "cell-based, human",
  "conditions": "defined medium with IL-2, IL-15, Amphotericin B",
  "data": [
    {"smiles": "O=P(O)(O)C(O)(Cn1ccnc1)P(=O)(O)O", "note": "[Zoledronate, Zoledronic acid]", "values": [
      {"measurement": "fold increase in absolute number of γδ T cells", "setting": "Donor 20, Day 0 to Day 17", "value": "3,350 fold"},
      {"measurement": "fold increase in absolute number of γδ T cells", "setting": "Donor 20, Day 0 to Day 22", "value": "11,060 fold"},
      {"measurement": "fold increase in absolute number of γδ T cells", "setting": "Donor 20, Day 0 to Day 29", "value": "31,666 fold"},
      {"measurement": "fold increase in absolute number of γδ T cells", "setting": "Donor 21, Day 0 to Day 17", "value": "4,633 fold"},
      {"measurement": "fold increase in absolute number of γδ T cells", "setting": "Donor 21, Day 0 to Day 22", "value": "12,320 fold"},
      {"measurement": "fold increase in absolute number of γδ T cells", "setting": "Donor 21, Day 0 to Day 29", "value": "32,833 fold"}
    ]}
  ]
}
